The values below are quoted from earlier work in US20260216122A1, “PHARMACEUTICAL COMPOSITION COMPRISING ENAVOGLIFLOZIN AND METFORMIN” (DAEWOONG PHARMACEUTICAL CO., LTD., priority 2022, published 2026).

Read-outs that look alike come from different tables or passages of the source.

As to `CN(C)C(=N)N=C(N)N` [Metformin], the Tmax entry runs as follows: (metformin, administered after a meal) “approximately 6 hours”; (metformin, administered before a meal) “approximately 4 hours”.
In the case of `OC[C@H]1O[C@@H](c2cc(Cc3ccc(C4CC4)cc3)c(Cl)c3c2CCO3)[C@H](O)[C@@H](O)[C@@H]1O` [enavogliflozin, (2S,3R,4R,5S,6R)-2-(7-chloro-6-(4-cyclopropylbenzyl)-2,3-dihydrobenzofuran-4-yl)-6-(hydroxymethyl)tetrahydro-2H-pyran-3,4,5-triol], the Tmax entry (enavogliflozin) was “approximately 1 hour”.
